From patent publication US9403758B2, “Antibacterial agents” (Achaogen, Inc., priority 2012, dated 2016)
In brackets after ≈: the same amount, converted by molar mass.

Key:
Assay type in all cases: cell-based
[1] = system: Escherichia coli ATCC25922; assay: MIC broth microdilution, Escherichia coli ATCC25922 (AECO); conditions: 35° C., 18-24 hr, read-out: Minimum Inhibitory Concentrations (MICs) AECO
Procedure: (§1) Bacterial isolates were cultivated from −70° C. frozen stocks by overnight passages at 35° C. in ambient air on Mueller-Hinton agar (Beckton Dickinson, Franklin Lakes, N.J.). Clinical isolates tested were obtained from various geographically diverse hospitals in the US and abroad (Focus Diagnostics, Herndon, Va. and JMI, North Liberty, Iowa). Quality control strains were from the American Type Culture Collection (ATCC; Rockville, Md.).
(§2) Minimum Inhibitory Concentrations (MICs) were determined by the broth microdilution method in accordance with the Clinical and Laboratory Standards Institute (CLSI) guidelines. In brief, organism suspensions were adjusted to a 0.5 McFarland standard to yield a final inoculum between 3×10^5 and 7×10^5 colony-forming units (CFU)/mL. Drug dilutions and inocula were made in sterile, cation adjusted Mueller-Hinton Broth (Beckton Dickinson). An inoculum volume of 100 μL was added to wells containing 100 μL of broth with 2-fold serial dilutions of drug. All inoculated microdilution trays were incubated in ambient air at 35° C. for 18-24 hr. Following incubation, the lowest concentration of the drug that prevented visible growth (OD600 nm<0.05) was recorded as the MIC. Performance of the assay was monitored by the use of laboratory quality-control strains and levofloxacin, a compound with a defined MIC spectrum, in accordance with CLSI guidelines. Typically, compounds of the present invention have MIC values of 0.03-32 μg/mL.

[2] = system: Pseudomonas aeruginosa ATCC27853; assay: MIC broth microdilution, Pseudomonas aeruginosa ATCC27853 (APAE); conditions: 35° C., 18-24 hr, read-out: Minimum Inhibitory Concentrations (MICs) APAE
Procedure: as §1, §2

[3] = system: Klebsiella pneumonia ATCC43816; assay: MIC broth microdilution, Klebsiella pneumonia ATCC43816 (AKPN); conditions: Klebsiella pneumoniae, 35° C., 18-24 hr, read-out: Minimum Inhibitory Concentrations (MICs) AKPN
Procedure: as §1, §2

MIC [1] [µg/mL]	MIC [2] [µg/mL]	MIC [3] [µg/mL]	Structure (SMILES)
≤ 1	8 to 16 (≈ 20.9 to 41.7 µM)	≤ 1	O=C(NO)c1cc(-c2ccc(C#CC#C[C@@H]3C[C@H]3CO)cc2)nc2ccncc12 (relative stereo) [Compound 1, N-hydroxy-2-(4-(((trans)-2-(hydroxymethyl)cyclopropyl)buta-1,3-diynyl)phenyl)-1,6-naphthyridine-4-carboxamide]
≤ 1	8 to 16 (≈ 24.1 to 48.1 µM)	8 to 16 (≈ 24.1 to 48.1 µM)	O=C(NO)c1cc(-c2ccc(C#CC#C[C@@H]3C[C@H]3CO)cc2)ccn1 (relative stereo) [Compound 2, N-hydroxy-4-(4-(((trans)-2-(hydroxymethyl)cyclopropyl)buta-1,3-diynyl)phenyl)picolinamide]
≤ 1	≤ 1	1 to 8 (≈ 2.57 to 20.5 µM)	CC(CCc1ccc(C#CC#C[C@H]2C[C@@H]2CO)cc1)(C(=O)NO)S(C)(=O)=O (relative stereo) [Compound 9, N-hydroxy-4-(4-(((trans)-2-(hydroxymethyl)cyclopropyl)buta-1,3-diynyl)phenyl)-2-methyl-2-(methylsulfonyl)butanamide]
≤ 1	≤ 1	≤ 1	CSC(C)(C)[C@H](NC(=O)c1ccc(C#CC#C[C@H]2C[C@@H]2CO)cc1)C(=O)NO (stereo in doubt) [Compound 3, N—((R)-1-(hydroxyamino)-3-methyl-3-(methylthio)-1-oxobutan-2-yl)-4-(((trans)-2-(hydroxymethyl)cyclopropyl)buta-1,3-diynyl)benzamide]
≤ 1	≤ 1	8 to 16 (≈ 19.2 to 38.4 µM)	C[S+]([O-])C(C)(C)[C@H](NC(=O)c1ccc(C#CC#C[C@H]2C[C@@H]2CO)cc1)C(=O)NO (stereo in doubt) [Compound 4, N-((2R)-1-(hydroxyamino)-3-methyl-3-(methylsulfinyl)-1-oxobutan-2-yl)-4-(((trans)-2-(hydroxymethyl)cyclopropyl)buta-1,3-diynyl)benzamide]
≤ 1	≤ 1	≤ 1	CC(C)([C@H](NC(=O)c1ccc(C#CC#C[C@H]2C[C@@H]2CO)cc1)C(=O)NO)S(C)(=O)=O (stereo in doubt) [Compound 5, N—((R)-1-(hydroxyamino)-3-methyl-3-(methylsulfonyl)-1-oxobutan-2-yl)-4-(((trans)-2-(hydroxymethyl)cyclopropyl)buta-1,3-diynyl)benzamide]
1 to 8 (≈ 2.53 to 20.2 µM)	≤ 1	8 to 16 (≈ 20.2 to 40.5 µM)	CC(C)(N)[C@H](NC(=O)c1ccc2cc(C#CC3C[C@@H]3CO)ccc2c1)C(=O)NO (stereo partly drawn) [Compound 6, N—((S)-3-amino-1-(hydroxyamino)-3-methyl-1-oxobutan-2-yl)-6-(((trans)-2-(hydroxymethyl)cyclopropyl)ethynyl)-2-naphthamide]
1 to 8 (≈ 2.49 to 19.9 µM)	1 to 8 (≈ 2.49 to 19.9 µM)	8 to 16 (≈ 19.9 to 39.9 µM)	CC(C)(N)[C@H](NC(=O)c1cc2ccc(C#CC3C[C@H]3CO)cc2s1)C(=O)NO (stereo partly drawn) [Compound 7, N—((S)-3-amino-1-(hydroxyamino)-3-methyl-1-oxobutan-2-yl)-6-(((trans)-2-(hydroxymethyl)cyclopropyl)ethynyl)benzo[b]thiophene-2-carboxamide]
≤ 1	≤ 1	≤ 1	CNC(=O)C(NC(=O)c1ccc(C#CC#C[C@@H]2C[C@H]2CO)cc1)C(=O)NO (stereo partly drawn) [Compound 8]
